One data set concerns naïve Balb/C mice. Put plainly: Luciferase liver model, aminolipid potency comparison (Example 2). The class given is in vivo, mouse. Conditions: intravenously, 0.5 mg/kg total mRNA, six hours following injection. Here is the method: (§1) The experiments described in this Example 2 used a firefly luciferase mRNA (“mLuc”), fully modified with pseudouridine and 5-methylcytidine replacing uridine and cytidine respectively. The LNP formulation used in these studies have the following general lipid composition (molar ratios): PEG-lipid (PEG2000-C-DMA (1.6 mol %); appropriate aminolipid (54.6 mol %); cholesterol (32.8 mol %); and DSPC (10.9 mol %). A lipid stock was prepared with the appropriate lipids dissolved in ethanol (12.6 mM). The mLuc stock was made up in a 40 mM EDTA buffer at 0.366 mg/mL in 40 mM EDTA. The two stocks were combined using the Jeffs et al method (Pharm. Research (2005), 22(3), pages 362-372), blending in a t-connector and diluted into Phosphate Buffered Saline, pH 7.4. Buffer exchange was then performed via overnight bag dialysis against 10× volume of PBS. After dialysis, LNP were concentrated by centrifugation in Vivaspin-6 or Vivaspin-20 units (MWCO 100 k) from GE Healthcare. The LNP were then sterile filtered (0.2 μm filter). Concentration of the LNP was determined using RiboGreen and a Varian Cary Eclipse Fluorimeter. Particle size and polydispersity were determined using a Malvern Nano Series Zetasizer.
LNP containing a luciferase mRNA payload were dosed at 0.5 mg/kg in naïve Balb/C mice (n=3). Six hours following injection, the mice were euthanized and livers were removed, weighed, and placed in lysing matrix tubes (containing one ceramic bead) on ice. PBS treatment groups were included to determine the background level of quenching of luciferase activity caused by the tissue homogenate in the Luciferase assay. Following collection, the tissues from these PBS treated animals were spiked with 50 μL of 100 ng/mL Luciferase solution in 1×CCLR (Cell Culture Lysis Reagent). Tissues were stored at −80° C. until Luciferase assay was performed.
(§2) All sample processing procedures were performed on ice. Tissues were homogenized and centrifuged in an Eppendorf microfuge at 3000 rpm & 4° C. for 10 minutes. After centrifugation, 20 μL of homogenate was aliquoted in duplicate into a white 96-well luminometer plate. Firefly luciferase […] was then analyzed on the EG&G Berthold Microplate Luminometer LB using the Promega Luciferase Assay System. The luciferase activity within the wells was determined by comparing the resulting RLUs for the homogenates to a standard curve prepared from 20 μL of firefly luciferase. A quenching factor was assigned to each tissue to control for natural quenching from the homogenates. This was determined using luciferase-spiked tissue from PBS treated mice.
The various formulations described were also assessed for potency in the mouse liver model. As an additional control, the use of the commercially available delivery reagent TransIT (Mirus) has been described in the literature for delivery of mRNA. A 0.05 mg/mL solution of TransIT-mRNA complex was prepared as follows. 50 μL of 1 mg/mL mRNA was added to 860 μL of DMEM, and to this solution the reagents from the TransIT-mRNA kit (Mirus) were added. In sequential order, 35 μL of the mRNA Boost reagent was added followed by 55 μL of the TransIT-mRNA reagent. The final solution was then incubated for 2-5 minutes before intravenous or intraperitoneal dosing.
All formulations were administered intravenously at a dose of 0.5 mg/kg total mRNA.

Data set [1] can be described thus: Formulability: LNP particle size, polydispersity and mRNA encapsulation (Example 2). The class given is physicochemical. Conditions: mLuc LNP with the aminolipid at 54.6 mol %; 12.6 mM lipid stock. The method, then:
as §1
The effect of the choice of aminolipid on parameters such as formulability and potency in the mRNA formulations was examined. As benchmarks, we selected the dilinoleyl lipids 5, 6, 7, and 8. […] We also selected a range of lipids with hydrophobic domains consisting of multiple (3 or 4) alkyl chains; 10, 9, 11, 13, 14, 17, and 18. Formulations were prepared as described above, using a 12.6 mM lipid stock.

Data set [2] in a line: Reproducibility of lipid particle formulation. Conditions: multiple mLuc LNP formulations; lipid stock 8.3-19.0 mM total lipid. In kind it is physicochemical. The method, then: Two aminolipids were selected to examine the reproducibility of lipid particle formulation. The benchmark dilinoleyl aminolipid MC3 was compared to the short trialkyl lipid 13-B43.
Multiple formulations were made, using the following composition (expressed as molar percentages): PEG-lipid (PEG2000-C-DMA) (1.6 mol %); amino lipid (54.6 mol %); cholesterol (32.8 mol %); and DSPC (10.9 mol %), according to the general procedures described above. The lipid stock was prepared in ethanol (ranging from 8.3-19.0 mM total lipid). The mRNA stock was prepared at 0.366 mg/mL in 40 mM EDTA. Buffer exchange was then performed via overnight bag dialysis against 10× volume of PBS. Samples were then concentrated to […] mRNA by centrifugation in Vivaspin-20 units (MWCO 100 k) from GE Healthcare. The LNP were then sterile filtered. Concentration of the LNP was determined using RiboGreen and a Varian Cary Eclipse Fluorimeter. Particle size and polydispersity were determined using a Malvern Nano Series Zetasizer.

The subject of a further data set is Balb/C mice. Briefly: Luciferase assay of Example 1 with tetraalkyl lipids, liver (Example 8). Conditions: particles comprising the lipid, assay described in Example 1. In kind it is in vivo, mouse. Here is the method:
In the liver model, LNP were dosed at 0.5 mg/kg in the naïve Balb/C mice (n=5). Six hours following injection, the mice were euthanized and the livers were removed, weighed, and placed in lysing matrix tubes (containing one ceramic bead) on ice.
as §2, with “rpm at” for “rpm &”, “resulting Relative Light Units (RLUs)” for “resulting RLUs”
In particular, the tetraalkyl lipids mediated an enhanced level of delivery of luciferase mRNA to living cells than the established benchmark dialkyl lipid 8 shown in Table 8.

“And” between values parts separate entries of the source, which are not always exact repeats. Identical values can stand only once.

This is an account of results in patent publication US20230165973A1, “COMPOSITIONS AND METHODS FOR DELIVERING MESSENGER RNA” (ARBUTUS BIOPHARMA CORPORATION, priority 2013, published 2023).

Take `CCCCC/C=C\C/C=C\CCCCCCCCC(CCCCCCCC/C=C\C/C=C\CCCCC)OC(=O)CCCN(C)C` [Compound 7, (6Z,9Z,28Z,31Z)-heptatriaconta-6,9,28,31-tetraen-19-yl 4-(dimethylamino)butanoate]: in the data set on naïve Balb/C mice, the “Luciferase protein in ng per g of liver” value was 369.85 ng per g of liver. Besides, in data set [1], the “% Encaps (Percentage Encapsulation)” value was 50%, the “PDI (polydispersity index)” value was determined as 0.11 and the “Zavg (average lipid particle diameter)” value amounted to 158 nm. Further, in data set [2], the “% Encaps of mLuc” value is 56% and 63% and 49% and 50% and 69% and 52%; the Particle size is 134 nm and 151 nm and 158 nm and 119 nm; the “Polydispersity Index” value is 0.11 and 0.07 and 0.08 and 0.14 and 0.12.

As for `CCCCC/C=C\C/C=C\CCCCCCCCC(CCCCCCCC/C=C\C/C=C\CCCCC)OCCCN(C)C` [Compound 8], the “Luciferase protein in ng per g of liver” value in the data set on naïve Balb/C mice is reported as 264.90 ng per g of liver. In data set [1], the “% Encaps (Percentage Encapsulation)” value is 57%, the “PDI (polydispersity index)” value worked out at 0.13 and the “Zavg (average lipid particle diameter)” value amounted to 144 nm. For the same compound, the “Activity in luciferase assay” value with Balb/C mice is recorded as 774,159 pg/g liver tissue.

`CCCCC/C=C\CCCC(CCC/C=C\CCCCC)C(CCC/C=C\CCCCC)OC(=O)CCCN(C)C` (stereo not drawn) [Compound 9]: in the data set with naïve Balb/C mice, the “Luciferase protein in ng per g of liver” value was 968.83 ng per g of liver. Further, in data set [1], the “% Encaps (Percentage Encapsulation)” value is recorded as 62%, the “PDI (polydispersity index)” value is recorded as 0.06 and the “Zavg (average lipid particle diameter)” value came out at 95 nm.

With `CCCCC/C=C\C/C=C\CCCCCCCCC(OC(=O)CCCCN(C)CC)C(O)(CCCCCCCC/C=C\C/C=C\CCCCC)CCCCCCCC/C=C\C/C=C\CCCCC` (stereo not drawn) [Compound 10, (6Z,9Z,29Z,32Z)-20-hydroxy-20-((9Z,12Z)-octadeca-9,12-dienyl)octatriaconta-6,9,29,32-tetraen-19-yl 5-(ethyl(methyl)amino)pentanoate], the “Luciferase protein in ng per g of liver” value in the data set with naïve Balb/C mice is on record as 203.47 ng per g of liver.

Consider `CCC/C=C\CCC(CC/C=C\CCC)CC(OC(=O)CCCCN(C)C)C(CC/C=C\CCC)CC/C=C\CCC` (stereo not drawn) [Compound 18], for which the “Luciferase protein in ng per g of liver” value in the data set with naïve Balb/C mice is given as 1388.39 ng per g of liver. In data set [1], the “% Encaps (Percentage Encapsulation)” value is on record as 88%, the “PDI (polydispersity index)” value came out at 0.08 and the “Zavg (average lipid particle diameter)” value is listed as 117 nm.

On to `CCCCC/C=C\CCCC(CCC/C=C\CCCCC)C(CC/C=C\CCCCC)OC(=O)CCCCN(C)C` (stereo not drawn) [Compound 19], for which, in data set [1], the “% Encaps (Percentage Encapsulation)” value was 78%, the “PDI (polydispersity index)” value came out at 0.10 and the “Zavg (average lipid particle diameter)” value was found to be 138 nm.

Consider `CCCCCCCCC(CCCCCC)CC(CC(CCCCCC)CCCCCCCC)OC(=O)CCCCN(C)C` (stereo not drawn) [Compound 35, 9,13-dihexylhenicosan-11-yl 5-(dimethylamino)pentanoate], for which the “Activity in luciferase assay” value in the data set on Balb/C mice is 1,412,464 pg/g liver tissue.

Take `CCCCCCCCC(CCCCCC)CC(CC(CCCCCC)CCCCCCCC)OC(=O)CCCCCN(C)C` (stereo not drawn) [Compound 37, 9,13-dihexylhenicosan-11-yl 6-(dimethylamino)hexanoate]: in the data set on Balb/C mice, the “Activity in luciferase assay” value is given as 2,228,526 pg/g liver tissue.

In the case of `CCCCC/C=C\CCCC(CCC/C=C\CCCCC)C(CC(CCCC)CCCCCC)OC(=O)CCCCN(C)C` (stereo not drawn) [Compound 43, (Z)-7-butyl-10-((Z)-dec-4-en-1-yl)icos-14-en-9-yl 5-(dimethylamino)pentanoate], in the data set with Balb/C mice, the “Activity in luciferase assay” value is on record as 919,590 pg/g liver tissue.
